Here are results for twelve molecules from ChEMBL document CHEMBL4382207, “Computer-aided drug discovery of Myc-Max inhibitors as potential therapeutics for prostate cancer” (Eur J Med Chem, 2018).

For data set [1], the target named is T1, c-Myc/Max (Homo sapiens, UniProt P01106+P61244). Kind of data set: Inhibition of Myc-Max (unknown origin) expressed in human 22rv1 cells harboring UBE2C promoter assessed as reduction in ARV7 level after 1 day by luciferase reporter gene assay. In kind it is cell-based.
The target in data set [2] is T1, c-Myc/Max. The experiment in a line: Inhibition of Myc-Max (unknown origin) expressed in human LNCAP cells assessed as reduction in transcriptional activity at 25 uM after 1 day by luciferase reporter gene assay relative to control. In kind it is cell-based.
Data set [3] has as its system LNCaP. The experiment in a line: Cytotoxicity against human LNCAP cells assessed as reduction in cell viability at 3 uM after 96 hrs by prestoblue assay relative to control. In kind it is functional.
The target of data set [4] is T1, c-Myc/Max. Kind of data set: Inhibition of full length Myc-Max (unknown origin) expressed in human PC3 cells at 12.5 to 25 uM after 24 hrs by luciferase reporter gene based mammalian two-hybrid assay. In kind it is cell-based.
The subject of data set [5] is LNCaP. Kind of data set: Induction of apoptosis in human LNCAP cells assessed as increase in PARP cleavage at 6.25 to 25 uM after 48 hrs by Western blot analysis. In kind it is functional, cell-based. In general terms: A western blot detects proteins with antibodies after separation by electrophoresis.
In data set [6] the target is T1, c-Myc/Max. Kind of data set: Inhibition of Myc-Max (unknown origin) expressed in human 22rv1 cells harboring UBE2C promoter assessed as reduction in ARV7 level at 25 uM after 1 day by luciferase reporter gene assay relative to control. Type of data set: cell-based. (In general: A reporter such as luciferase makes a cellular process visible.)
In a further data set the test system is HO15.19. The experiment in a line: Cytotoxicity against rat HO15.19 cells assessed as reduction in cell viability at 3 uM after 96 hrs by prestoblue assay. Type of data set: cell-based. The note with it: ho15.19, 96 h.
Data set [7] has as its target T1, c-Myc/Max. The experiment in a line: Inhibition of Myc-Max (unknown origin) expressed in human 22rv1 cells harboring UBE2C promoter assessed as reduction in ARV7 level at 12.5 to 25 uM after 48 hrs by Western blot analysis. In kind it is cell-based.
Data set [8] concerns the target T1, c-Myc/Max. The experiment in a line: Inhibition of biotin-labeled EBOX oligonucleotide binding to GST-tagged Myc (368 to 454 residues)/His-tagged Max (23 to 102 residues) (unknown origin) expressed in Escherichia coli BL21(DE3) at 500 uM incubated up to 600 secs by biolayer interferometry assay. (In general: In BLI a coated tip is dipped into the sample, and binding shifts an interference pattern.)

The target in data set [9] is T1, c-Myc/Max. The experiment in a line: Inhibition of Myc-Max (unknown origin) expressed in human LNCAP cells assessed as reduction in transcriptional activity after 1 day by luciferase reporter gene assay. In kind it is cell-based.
Data set [10] in a line: Cytotoxicity against rat HO15.19 cells assessed as reduction in cell viability at 25 uM after 96 hrs by prestoblue assay relative to control. The settings on record: read-out: INH. In kind it is cell-based.
Data set [11] relates to LNCaP. The experiment in a line: Cytotoxicity against human LNCAP cells assessed as reduction in cell viability after 96 hrs by prestoblue assay. Type of data set: functional, cell-based.
Data set [12] deals with T1, c-Myc/Max. Kind of data set: Inhibition of biotin-labeled EBOX oligonucleotide binding to GST-tagged Myc (368 to 454 residues)/His-tagged Max (23 to 102 residues) (unknown origin) expressed in Escherichia coli BL21(DE3) incubated up to 600 secs by biolayer interferometry assay.

What is called inhibition is the change of the read-out against control, counted positive when it falls. Broadly, the IC50 is the concentration at which inhibition is half-maximal.

Calls of active or inactive are those of the source. The calls are words filed in the database; no cut-off is given here. Where only a bound is given, the exact number is not on record here.

T1 sequence (P01106 whole entry): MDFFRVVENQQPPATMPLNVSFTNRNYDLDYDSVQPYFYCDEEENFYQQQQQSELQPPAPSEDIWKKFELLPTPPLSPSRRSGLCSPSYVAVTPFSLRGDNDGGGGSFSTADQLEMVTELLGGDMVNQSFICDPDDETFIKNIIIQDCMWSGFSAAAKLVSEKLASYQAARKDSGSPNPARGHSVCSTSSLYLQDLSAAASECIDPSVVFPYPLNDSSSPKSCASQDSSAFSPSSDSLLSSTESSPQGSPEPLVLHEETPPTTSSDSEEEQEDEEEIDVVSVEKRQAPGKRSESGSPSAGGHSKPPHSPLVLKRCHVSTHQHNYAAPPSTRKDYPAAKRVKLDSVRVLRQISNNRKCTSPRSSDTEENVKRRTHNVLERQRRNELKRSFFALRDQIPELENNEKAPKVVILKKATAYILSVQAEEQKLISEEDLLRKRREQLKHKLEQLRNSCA
T1 sequence (P61244 whole entry): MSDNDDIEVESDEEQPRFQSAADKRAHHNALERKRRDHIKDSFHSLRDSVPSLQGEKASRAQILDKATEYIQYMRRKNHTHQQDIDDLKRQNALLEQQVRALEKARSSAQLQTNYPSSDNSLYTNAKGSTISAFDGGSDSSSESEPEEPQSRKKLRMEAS

For the molecule `O=C1/C(=C/c2cccs2)SC(=S)N1c1cccc(O)c1`, the inhibition entry at c-Myc/Max [1] is “Dose-dependent effect”; at c-Myc/Max [2], 65%.
Take `FC(F)(F)c1cc(NC(=S)NCc2ccccc2)cc(C(F)(F)F)c1`: the inhibition at 3 µM in the data set on LNCaP [3] turned out to be 70%. The inhibition result at c-Myc/Max [1] is “Dose-dependent effect”; at c-Myc/Max [2] it was 106%; at c-Myc/Max [6] it was 94%; at c-Myc/Max [12] it was “Dose-dependent effect”. Further, the inhibition result on c-Myc/Max [4], at c-Myc/Max [7] and on c-Myc/Max [8] was “Active” each time. Also, the result with LNCaP [5] was Active. Also, in the data set with HO15.19, the Activity result is recorded as “Non-Toxic”. The IC50 on c-Myc/Max [9] was determined as 8.9 µM; with LNCaP [11], 2.5 µM. Moreover, the cytotoxicity at 96 h, 25 µM in data set [10] is at most 40%.
For the molecule `CC(=O)Nc1ccc(Nc2cc(Cl)c(C(F)(F)F)cc2[N+](=O)[O-])cc1`, the figures for the inhibition entry on c-Myc/Max [1], at c-Myc/Max [2] and at c-Myc/Max [6] were “Dose-dependent effect”, 81% and 51%, respectively.
Turning to `S=C(NCc1ccc(Cl)c(Cl)c1)Nc1cccnc1`, the inhibition result on c-Myc/Max [1] was “Dose-dependent effect”; on c-Myc/Max [2] it was 73%; on c-Myc/Max [6], 50%.
As for `CCc1ccc(/C=C2\SC(=S)NC2=O)cc1`, the values for the inhibition entry at c-Myc/Max [1], at c-Myc/Max [2] and at c-Myc/Max [6] were “Dose-dependent effect”, 91% and 70%, respectively. In addition, in the data set with LNCaP [11], the IC50 was determined as 18.3 µM.
Take `CS(=O)(=O)Nc1ccccc1C(=O)OCc1cc(=O)oc2cc(O)ccc12`: the inhibition result is “Dose-dependent effect” on c-Myc/Max [1] and 53% at c-Myc/Max [2].
As to `NC(=O)c1ccsc1NC(=O)Nc1cccc(C(F)(F)F)c1`, the inhibition result at c-Myc/Max [1] was “Dose-dependent effect”; on c-Myc/Max [2] it was 95%; at c-Myc/Max [6], 73%.
On to `O=C1NC(=S)S/C1=C\c1ccccc1C(F)(F)F`, for which the results for the inhibition result at c-Myc/Max [1], on c-Myc/Max [2] and on c-Myc/Max [6] were “Dose-dependent effect”, 98% and 71%, respectively. Further, in the data set on LNCaP [5], the outcome was Active. The inhibition result at c-Myc/Max [7] and at c-Myc/Max [8] was “Active” in each case. In addition, the IC50 worked out at 22.7 µM at c-Myc/Max [9] and 11.1 µM with LNCaP [11].
On to `O=C(CN1C(=O)NC2(CCCC2)C1=O)Nc1cccc(C(F)(F)F)c1`, for which the inhibition result is “Dose-dependent effect” on c-Myc/Max [1] and 65% on c-Myc/Max [2].
On to `CC(C)(C)[C@H]1CCc2sc(C(=O)N3CCC(C(N)=O)CC3)cc2C1`, for which the inhibition result on c-Myc/Max [1] is “Dose-dependent effect”; on c-Myc/Max [2], 73%; at c-Myc/Max [6] it was 58%.
As to `O=[N+]([O-])c1ccc(Nc2ccccc2-c2ccccc2)c2nonc12`, the inhibition entry at c-Myc/Max [1] is “Dose-dependent effect”; on c-Myc/Max [2], 88%. Also, at c-Myc/Max [4], the inhibition entry was “inactive”. In addition, the inhibition result at c-Myc/Max [7] and at c-Myc/Max [8] was “Active” throughout. The IC50 in the data set with LNCaP [11] was 8.7 µM.
Turning to `CN1C(=O)/C(=C\C=C\c2ccco2)SC1=S`, the figures for the inhibition entry at c-Myc/Max [1], on c-Myc/Max [2] and on c-Myc/Max [6] were “Dose-dependent effect”, 78% and 64%, respectively.
